Results from the NIST ThermoML archive (doi:10.1016/j.jct.2005.02.005).
Numbers after ± are expanded uncertainties.

Experiments:
[1] = Liquid; for mass density: 293.15 K, 101.33 kPa
[2] = refractive index (Na D-line) (dimensionless); conditions: 293.15 K; 101.33 kPa; Liquid; Standard Abbe refractometry

Row | mass density [1] [kg/m3] | Compound | mass density ([1]; Vibrating tube method) [kg/m3] | Normal boiling temperature [1] [°C] | refractive index [2]
1 | – | CCOC(=O)c1ccccc1C(=O)OCC [diethyl phthalate] | 1117.2 ± 0.6 | 298.02 ± 0.1 | 1.5003 ± 0.0008
2 | 992.7 ± 0.5 | CCC(=O)O [propanoic acid] | – | 141.0 ± 0.1 | 1.3811 ± 0.0008
